Patent US20020198160A1, “Compositions and methods for enhancing the bioavailability of pharmaceutical agents” (priority 2001, published 2002)
Read-outs that look alike come from different tables or passages of the source.

Key:
[1] = system: HCT15 cells (which express P-glycoprotein); test: Efflux of radiolabelled lopinavir, ritonavir and paclitaxel from HCT15 cells; assay type: cell-based; details: 1 μM loaded for 1 hour, FIG. 1
Description: The medium was aspirated and the cells were washed with PBS (phosphate buffered saline, available from Life Technologies, Rockvile, Md.). At harvest, the cells were washed once with PBS and the pellets were dissolved in 550 μl of 1N NaOH. The total protein was determined by Bio-Rad assay (available from Bio-Rad of Hercules, Ca.) and the total radioactivity was determined by LSC. Following normalization of the protein amount, cpm/μg protein for each time point was compared to the peak drug time 0.

[2] = system: HCT15 cells (which express P-glycoprotein); test: Decrease of the IC50 of paclitaxel in HCT15 cells on adding a P-glycoprotein inhibitor; assay type: cell-based; details: lopinavir 5 μM added to paclitaxel
[3] = system: H460/T800 cells (which over express P-glycoprotein); test: Reduction of the IC50 of paclitaxel in paclitaxel resistant H460/T800 cells on adding lopinavir; assay type: cell-based
[4] = target: T1, P-glycoprotein (Homo sapiens, UniProt P08183)
Description: (§1) The cells were grown and maintained in DMEM (Dulbecco's modified eagle's medium, purchased from Gibco/BRL, Grand Island, N.Y.) supplemented with 10% fetal bovine serum and 2 mM L-glutamine.
(§2) Cell cultures were maintained, antibiotic free, in a 37° C. incubator with 90% relative humidity in an atmosphere of 5% CO2. The cells were maintained in 10 cm^2 stock plates and seeded onto polycarbonate Transwell™ HTS filter inserts at 4×10^5 cells/mL. The cells were cultured on the filters for about 27-30 days. Caco-2 cells having passages between 40 and 110 were used for the studies.
(§3) The integrity of the cell monolayers was determined by measuring the paracellular transepithelial transport of the integrity marker, Lucifer yellow, which is commercially available from Sigma Chemical of St. Louis, Mo.
(§4) Stock concentrations (C0) of each of the P-glycoprotein inhibitors were treated similarly as dosed cells and were retained and sampled for starting dose. Aliquots for both the AP and the BL sides of the cell monolayers were taken at 2 hours, and such aliquots were analyzed by LSC Calculation of the apparent permeability by using the Artusson equation shown above. For the triplicate wells the P(app) is the mean of the three individual P(app) values for each well.

[5] = target: T1, P-glycoprotein; test: in vitro; details: Caco-2, pH 7.4
Description: as §1, §2, §3, §4

[6] = target: T1, P-glycoprotein; test: in vitro; details: Caco-2
Description: as §1, §2, §3
(§5) The transport of vinblastine, which is the pharmaceutically active agent in these studies, was allowed to proceed for 120 minutes at 37° C. Stock concentrations (C0) of each of the P-glycoprotein inhibitors were treated similarly as dosed cells and were retained and sampled for starting dose. Aliquots for both the AP and the BL sides of the cell monolayers were taken at 2 hours, and such aliquots were analyzed by liquid scintillation counting (LSC) using a Packard Liquid Scintillation Counting machine. Calculation of the apparent permeability was done by using the following Artusson equation: [formula]
(§6) where dQ/dT is the flux rate (μg/sec), C0 is concentration of the starting material at t=0 (μg/mL), and A=the area of the monolayer (cm^2). For the triplicate wells the P(app) is the mean of the three individual P(app) values for each well.

[7] = target: T1, P-glycoprotein; test: Vinblastine transepithelial bi-directional transport across Caco-2 cell monolayers with or without P-glycoprotein inhibitors; details: Run 2, vinblastine 5 μM, inhibitor 10 μM
Description: as §1, §2, §3, §5, §6

[8] = Table 2B (printed Run 1), Caco-2, lopinavir or ritonavir 5 μM, CyA 10 μM, 120 minutes at 37° C., mean ± SD of triplicate wells
[9] = 120 minutes at 37° C., mean ± SD of triplicate wells

T1 sequence (P08183 whole entry): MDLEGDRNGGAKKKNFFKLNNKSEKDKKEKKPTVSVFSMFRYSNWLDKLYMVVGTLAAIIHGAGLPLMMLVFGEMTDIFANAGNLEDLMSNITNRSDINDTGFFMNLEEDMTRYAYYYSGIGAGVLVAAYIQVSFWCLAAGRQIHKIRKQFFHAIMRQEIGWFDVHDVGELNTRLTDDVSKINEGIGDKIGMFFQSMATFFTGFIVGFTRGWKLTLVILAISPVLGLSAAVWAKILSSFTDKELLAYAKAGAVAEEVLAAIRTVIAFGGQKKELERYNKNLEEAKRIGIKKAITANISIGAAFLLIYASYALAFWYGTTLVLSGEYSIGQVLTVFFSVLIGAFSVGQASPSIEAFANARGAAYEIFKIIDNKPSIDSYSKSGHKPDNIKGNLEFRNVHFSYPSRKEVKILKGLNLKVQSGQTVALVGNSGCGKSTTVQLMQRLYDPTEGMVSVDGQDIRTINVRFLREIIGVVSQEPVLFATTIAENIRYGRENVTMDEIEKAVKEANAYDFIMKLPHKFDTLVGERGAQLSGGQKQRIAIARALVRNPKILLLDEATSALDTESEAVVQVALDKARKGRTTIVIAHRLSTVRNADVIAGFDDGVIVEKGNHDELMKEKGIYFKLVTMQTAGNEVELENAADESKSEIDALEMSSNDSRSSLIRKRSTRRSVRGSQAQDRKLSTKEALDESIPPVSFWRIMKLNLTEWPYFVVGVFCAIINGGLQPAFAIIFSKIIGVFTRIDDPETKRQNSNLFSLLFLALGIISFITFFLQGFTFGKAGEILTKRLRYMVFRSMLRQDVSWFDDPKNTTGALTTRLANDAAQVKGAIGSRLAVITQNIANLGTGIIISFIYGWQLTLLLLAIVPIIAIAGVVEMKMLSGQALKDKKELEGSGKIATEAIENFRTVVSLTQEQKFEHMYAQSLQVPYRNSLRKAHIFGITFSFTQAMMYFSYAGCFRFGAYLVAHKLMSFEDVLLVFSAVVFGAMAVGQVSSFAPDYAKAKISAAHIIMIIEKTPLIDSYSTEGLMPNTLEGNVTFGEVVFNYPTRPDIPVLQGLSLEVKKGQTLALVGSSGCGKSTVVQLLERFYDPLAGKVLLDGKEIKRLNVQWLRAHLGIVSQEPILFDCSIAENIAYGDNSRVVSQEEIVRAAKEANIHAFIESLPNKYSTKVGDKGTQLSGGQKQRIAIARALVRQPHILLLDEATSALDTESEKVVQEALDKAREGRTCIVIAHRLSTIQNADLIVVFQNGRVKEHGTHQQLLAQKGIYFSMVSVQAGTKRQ

`Cc1cccc(C)c1OCC(=O)N[C@@H](Cc1ccccc1)[C@@H](O)C[C@H](Cc1ccccc1)NC(=O)[C@H](C(C)C)N1CCCNC1=O` (relative stereo) [Lopinavir, [1S-[1R*,(R*),3R*,4R*]]-N-[4-[[(2,6-dimethylphenoxy)acetyl]amino]-3-hydroxy-5-phenyl-1-(phenylmethyl)pentyl]tetrahydro-alpha-(1-methylethyl)-2-oxo-(2H)-pyrimidine acetamide] was tested, and the “compound remained in the HCT15 cells” value ([1]; after 60 minutes) was “approximately 80%”, the “decrease in the IC50 of paclitaxel” value [2] was 9 fold and the “reduction of the IC50 of paclitaxel” value ([3]; lopinavir 5 μM with paclitaxel) was 11 fold. The “reduction of the IC50 of paclitaxel” value ([3]; lopinavir 10 μM with paclitaxel) was 21 fold, the “substrate for P-glycoprotein (conclusion from Tables 2A and 2B)” value ([4]; Caco-2 bi-directional permeability with or without cyclosporin A) was “not a substrate for P-glycoprotein” and the “P(app) AP-BL” value [4, 8] was 18.72 ± 1.04 1 × 10(−6) cm/sec. The “P(app) BL-AP” value [4, 8] was 17.42 ± 4.37 1 × 10(−6) cm/sec, the Papp A→B at 120 min, 5 μM [5] was 10.7 ± 0.58 ×10⁻⁶ cm/s and the Papp B→A at 120 min, 5 μM [5] was 9.55 ± 2.1 ×10⁻⁶ cm/s.

In the case of `CC(C)c1nc(CN(C)C(=O)N[C@H](C(=O)N[C@@H](Cc2ccccc2)C[C@H](O)[C@H](Cc2ccccc2)NC(=O)OCc2cncs2)C(C)C)cs1` (relative stereo) [Ritonavir, [5S-(5R*,8R*,10R*,11R*)]-10-hydroxy-2-methyl-5-(1-methylethyl)-1-[2-(1-methylethyl)-4-thiazolyl]-3,6-dioxo-8,11-bis(phenylmethyl)-2,4,7,12-tetraazatridecan-13-oic acid, 5-thiazolylmethyl ester], the “elimination (efflux) by the HCT15 cells” value ([1]; in 15 minutes) is reported as “rapidly eliminated”.

Work on `CC[C@]1(O)C[C@@H]2CN(CCc3c([nH]c4ccccc34)[C@@](C(=O)OC)(c3cc4c(cc3OC)N(C)[C@H]3[C@@](O)(C(=O)OC)[C@H](OC(C)=O)[C@]5(CC)C=CCN6CC[C@]43[C@@H]65)C2)C1` [Vinblastine, vinblastine] yielded a Papp A→B at 120 min, 5 μM [6] of 0.91 ± 0.07 ×10⁻⁶ cm/s, a Papp B→A at 120 min, 5 μM [6] of 17.7 ± 0.39 ×10⁻⁶ cm/s and an efflux ratio at 120 min, 5 μM [6] of 19.5. The “Ratio (BL-AP/AP-BL)” value [7] was 30.02, the “P(app) AP-BL” value [7, 9] was 0.49 ± 0.00 1 × 10(−6) cm/sec and the “P(app) BL-AP” value [7, 9] was 14.71 ± 3.33 1 × 10(−6) cm/sec.
